The target in assay [1] is T1, ROC1-CUL1 CTD (Homo sapiens (Human), UniProt Q13616). In words: FRET K48 di-Ub synthesis assay. Type of assay: biochemical. As to the method:
The high throughput screen (“HTS”) employed the FRET K48 di-Ub assay as established previously (Wu et al., “Suramin Inhibits Cullin-RING E3 Ubiquitin Ligases,” PNAS 113(14):E2011-2018 (2016), which is hereby incorporated by reference in its entirety) and was carried out at Memorial Sloan Kettering Cancer Center Core Screening Facility. For HTS, the assay was formatted using three reagent addition steps. Library compounds, stored in 10 mM stock plates (DMSO), were transferred into assay plates and each well contains a single compound at 100 μM in 1 μl 10% DMSO. The complete complement of proteins/enzymes (6.5 μl), containing Ub E1 (14 nM), E2 Cdc34 (124 nM), E3 ROC1-CUL1 CTD (0.2 μM), Ub C31-I555 (donor, 0.93 μM), and Ub C64-I647 (receptor, 1.62 μM), in the presence of 33 mM Tris-HCl (pH 7.4), 1.7 mM MgCl2, 0.33 mM DTT, and BSA (0.07 mg/ml), was added to each plate. The concentrations of all five proteins have been determined based on Km measurement as described previously (Wu et al., “Suramin Inhibits Cullin-RING E3 Ubiquitin Ligases,” PNAS 113(14):E2011-2018 (2016), which is hereby incorporated by reference in its entirety). To initiate ubiquitination, ATP (2.5 μl in 2.64 mM) was added and its final concentration was 0.66 mM. The concentration of ATP was set high to minimize identification of nucleotide analogues because the priority of the HTS is to find small molecule modulators specific for E3 ROC1-CUL1 CTD. In this setting, the concentration of compound and DMSO in a given well were 10 μM and 1%, respectively. After incubation at room temperature for 45 min, EDTA (30 mM) was added to terminate the reaction. The reaction was quantified based on the ratio of acceptor:donor fluorescence (excitation 515 nm; donor emission 570 nm; acceptor emission 670 nm) using a Victor high-throughput plate reader (Perkin Elmer).
(§1) The reaction mixture (15 μl) was assembled onto a 384-well microtiter plate. […] ATP (0.66 mM) was then added to the mix followed by a brief centrifugation to settle down the mixture. The resulting plate was incubated at 30° C. in the Synergy-H1 reader and the fluorescence signal was monitored. Ubiquitination was quantified based on the ratio of acceptor:donor fluorescence (excitation 515 nm; donor emission 570 nm, acceptor emission 670 nm).

The target in assay [2] is T1, ROC1-CUL1 CTD. In words: Ligand binding by MST. The procedure:
E3 ligase complex (˜2 nmol) was labeled with fluorescent dye using Monolith NT Protein Labeling Kit Red-NHS (Nanotemper) in the presence of 20 mM MES pH 6.0 and 150 mM NaCl. Excess dye was removed using the included gravity flow column and eluted in storage buffer containing 20 mM Tris-HCl, pH 7.4, 150 mM NaCl, and 10% glycerol. The fluorescent E3 complex (˜0.01-0.06 μM) was mixed with increasing amount of compound in a buffer (20 μl) that contains phosphate-buffered saline, 0.1% TWEEN-20 and 2% prionex. Following incubation at room temperature for 30 min, the reaction mixture loaded into premium coated capillaries and analyzed in the Monolith NT.115 machine (Nanotemper). Thermophoresis was recorded for each sample and binding curve was generated and Kd was calculated using the included software. For reactions where significant ligand specific fluorescence quenching occurred (verified by manufacturer's SDS Denaturation-test protocol), the initial fluorescence quenching data was used directly to calculate the binding curve and Kd.

Assay [3] has as its target E3 (CUL1) (Homo sapiens (Human), UniProt Q13616). The assay is described as follows: E3 (CUL1) inhibition (Table 1). It is filed as biochemical. The procedure:
as §1

In assay [4] the target is E3 (CUL4) (Homo sapiens (Human), UniProt Q13619). In words: E3 (CUL4) inhibition (Table 1). Type of assay: biochemical. The procedure: The reaction was incubated for 5 min at 37° C. […] The reaction was incubated for 5 min at room temperature. In the second step (chase), the completed Cdc34b-Ub thiol ester reaction mixture was combined with one third of the completed mono-ubiquitination mixture. The final volume was adjusted to 10 μl with a mix that contained 50 mM Tris-HCl (pH 7.4), 0.5 mM DTT, 0.1 mg/ml of BSA, 5 mM MgCl2, and 2 mM ATP. Compounds were added where indicated. The chase reaction was incubated for 10 min at 37° C. The reaction products were separated by 4-20% SDS-polyacrylamide gel electrophoresis. The reaction scheme was identical to the one described above for FIGS. 12A-B. […] The reaction products, separated by SDS-PAGE, were visualized and analyzed by phospho-imaging using Typhoon 9500 scanner.
Chain of E3 (CUL4) (Q13619 whole entry): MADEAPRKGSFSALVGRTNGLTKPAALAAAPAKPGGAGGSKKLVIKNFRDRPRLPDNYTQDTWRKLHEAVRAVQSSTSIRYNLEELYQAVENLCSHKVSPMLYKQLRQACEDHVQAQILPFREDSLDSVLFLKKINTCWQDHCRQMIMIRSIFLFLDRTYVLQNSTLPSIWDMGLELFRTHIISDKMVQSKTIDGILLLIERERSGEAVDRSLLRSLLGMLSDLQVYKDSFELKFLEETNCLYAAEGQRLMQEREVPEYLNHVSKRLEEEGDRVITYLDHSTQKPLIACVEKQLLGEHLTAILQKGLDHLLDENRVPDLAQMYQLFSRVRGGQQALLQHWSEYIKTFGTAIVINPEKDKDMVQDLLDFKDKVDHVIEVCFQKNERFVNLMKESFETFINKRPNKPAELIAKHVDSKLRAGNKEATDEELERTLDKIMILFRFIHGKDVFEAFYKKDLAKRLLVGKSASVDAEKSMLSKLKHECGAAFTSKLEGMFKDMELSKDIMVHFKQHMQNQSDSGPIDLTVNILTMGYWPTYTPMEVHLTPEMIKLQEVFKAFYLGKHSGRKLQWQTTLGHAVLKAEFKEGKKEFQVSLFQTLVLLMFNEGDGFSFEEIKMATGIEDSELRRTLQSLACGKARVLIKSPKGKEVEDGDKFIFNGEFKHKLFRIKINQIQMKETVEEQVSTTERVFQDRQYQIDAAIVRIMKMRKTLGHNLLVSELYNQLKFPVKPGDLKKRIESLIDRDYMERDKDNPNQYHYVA
Chain of E3 (CUL4) (P62877 whole entry partner): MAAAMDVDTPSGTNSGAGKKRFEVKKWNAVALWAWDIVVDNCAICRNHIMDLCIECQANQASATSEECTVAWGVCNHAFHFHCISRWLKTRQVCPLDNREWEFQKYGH

Assay [5] concerns cancer cells. In words: Apoptosis, Annexin V flow cytometry. It is filed as cell-based. The settings on record: Table 1. As to the method: Cells (5×10^4) were seeded 24 hours before compound treatment. Compound was added to the culture media and cells were cultured with the compound for 48 hours. The treated cells were then transferred into 5 ml flow cytometry tubes and the well was washed once with PBS to collect any remaining cells. The cells were then pelleted at 500×g for 5 min with a Beckman CS-6KR centrifuge at 4° C. After removal of supernatant, the cells pellet was washed with Annexin V binding buffer (10 mM Hepes-NaOH, pH 7.4, 150 mM NaCl, 5 mM KCl, 1 mM MgCl2, and 1.8 mM CaCl2). Cells were pelleted once again and incubated in the dark with Annexin V-FITC (2 μg/ml) in binding buffer for 5 min then analyzed using LSRFortessa flow cytometer (BD).

The results in this text go back to patent US20240174649A1, “CULLIN-RING E3 UBIQUITIN LIGASE 4 INHIBITOR COMPOUNDS AND METHODS OF THEIR USE” (ICAHN SCHOOL OF MEDICINE AT MOUNT SINAI, priority 2021, published 2024).

SMILES strings stand for the structures. pEC50, pIC50, pKd: −log10 of the molar value. Like-named read-outs stand apart in the source and are kept apart here.

T1 sequence (Q13616 411-776): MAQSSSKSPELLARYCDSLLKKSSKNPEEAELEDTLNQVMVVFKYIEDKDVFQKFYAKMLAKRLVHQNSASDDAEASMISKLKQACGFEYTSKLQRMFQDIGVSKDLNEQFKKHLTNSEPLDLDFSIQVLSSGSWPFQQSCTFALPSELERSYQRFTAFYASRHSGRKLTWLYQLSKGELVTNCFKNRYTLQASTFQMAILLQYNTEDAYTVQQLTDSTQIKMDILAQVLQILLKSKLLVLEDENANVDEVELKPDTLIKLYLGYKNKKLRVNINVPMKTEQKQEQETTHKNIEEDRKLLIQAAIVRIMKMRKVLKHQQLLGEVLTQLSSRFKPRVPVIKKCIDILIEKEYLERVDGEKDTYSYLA
T1 sequence (P62877 whole entry partner): as the sequence (P62877 whole entry partner) above
Chain of E3 (CUL1) (Q13616 whole entry): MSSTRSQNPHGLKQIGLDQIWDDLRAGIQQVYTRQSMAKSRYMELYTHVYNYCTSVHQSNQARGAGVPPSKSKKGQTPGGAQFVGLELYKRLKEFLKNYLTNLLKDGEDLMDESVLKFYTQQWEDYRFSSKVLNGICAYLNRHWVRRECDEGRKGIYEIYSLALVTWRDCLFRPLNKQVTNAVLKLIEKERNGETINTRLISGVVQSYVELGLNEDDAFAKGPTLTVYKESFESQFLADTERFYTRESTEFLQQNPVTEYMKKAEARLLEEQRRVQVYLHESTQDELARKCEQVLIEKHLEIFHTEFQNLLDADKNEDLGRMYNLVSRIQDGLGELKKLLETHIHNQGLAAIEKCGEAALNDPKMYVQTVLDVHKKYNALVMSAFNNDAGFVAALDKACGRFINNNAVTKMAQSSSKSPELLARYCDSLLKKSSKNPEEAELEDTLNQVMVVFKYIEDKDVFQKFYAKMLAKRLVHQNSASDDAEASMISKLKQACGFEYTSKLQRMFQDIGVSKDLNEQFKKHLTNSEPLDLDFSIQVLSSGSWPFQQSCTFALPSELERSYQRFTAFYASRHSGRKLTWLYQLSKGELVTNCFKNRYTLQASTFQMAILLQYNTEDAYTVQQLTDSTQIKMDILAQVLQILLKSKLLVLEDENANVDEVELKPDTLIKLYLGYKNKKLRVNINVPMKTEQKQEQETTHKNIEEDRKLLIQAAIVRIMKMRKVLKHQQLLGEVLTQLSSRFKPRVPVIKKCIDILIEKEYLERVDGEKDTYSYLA
Chain of E3 (CUL1) (P62877 whole entry partner): as the sequence (P62877 whole entry partner) above

Take `Cc1oc2c(O)c(O)ccc2c(=O)c1Oc1ccccc1` [#33-2, 7,8-dihydroxy-2-methyl-3-phenoxy-4H-chromen-4-one]: in assay [1], the “drop in IC50 relative to #33” value worked out at 7 fold. In addition, the pIC50 in assay [1] (Table 5, read-out: E3 inhibition IC50) was 5.05. Further, the “reduction of binding Kd relative to #33” value in assay [2] was determined as 8 fold. In assay [2] (Table 5, MST, read-out: E3 binding Kd), the negative logarithm of the Kd (pKd) was 4.82.

For the molecule `O=c1c(-c2cnn(Cc3cccc(Cl)c3)c2)c(C(F)(F)F)oc2c(O)c(O)ccc12` [MSSM-RJD-MM-023, 3-(1-(3-chlorobenzyl)-1H-pyrazol-4-yl)-7,8-dihydroxy-2-(trifluoromethyl)-4H-chromen-4-one], the values for the pEC50 in assay [3], in assay [4] and in assay [5] were 5.08, less than 5.00 and 4.70 to 5.00, respectively.

For the molecule `CCCCn1cc(-c2c(C(F)(F)F)oc3c(O)c(O)ccc3c2=O)cn1` [MSSM-RJD-MM-007, 3-(1-butyl-1H-pyrazol-4-yl)-7,8-dihydroxy-2-(trifluoromethyl)-4H-chromen-4-one], the pEC50 in assay [3] was 5.42; in assay [4], less than 5.00; in assay [5], less than 4.70.

Turning to `N#Cc1ccc(-n2cc(-c3c(C(F)(F)F)oc4c(O)c(O)ccc4c3=O)cn2)cc1` [KH-3-152], the pEC50 in assay [3] is 5.05; in assay [4] it was less than 4.85; in assay [5], 4.52.

As for `O=c1c(-c2cnn(Cc3ccc(C(F)(F)F)cc3)c2)c(C(F)(F)F)oc2c(O)c(O)ccc12` [MSSM-RJD-MM-014, 7,8-dihydroxy-2-(trifluoromethyl)-3-(1-(4-(trifluoromethyl)benzyl)-1H-pyrazol-4-yl)-4H-chromen-4-one], the results for the pEC50 in assay [3], in assay [4] and in assay [5] were 5.27, roughly 5.00 and roughly 5.10, respectively.

Turning to `CCCn1cc(-c2c(C(F)(F)F)oc3c(OC)c(OC)ccc3c2=O)cn1` [MSSM-RJD-MM-004], the pEC50 in assay [3] is less than 4.00; in assay [4] it was less than 5.00; in assay [5], less than 4.70.

As to `CCCn1cc(-c2c(C(F)(F)F)oc3c(O)c(O)ccc3c2=O)cn1` [MSSM-RJD-MM-008, 7,8-dihydroxy-3-(1-propyl-1H-pyrazol-4-yl)-2-(trifluoromethyl)-4H-chromen-4-one], the values for the pEC50 in assay [3], in assay [4] and in assay [5] were 5.40, less than 5.00 and less than 4.70, respectively.

With `O=c1c(-c2cnn(Cc3cc(F)ccc3C(F)(F)F)c2)c(C(F)(F)F)oc2c(O)c(O)ccc12` [MSSM-RJD-MM-028], the figures for the pEC50 in assay [3], in assay [4] and in assay [5] were 5.14, roughly 5.00 and roughly 4.70, respectively.

In the case of `COc1ccc2c(=O)c(-c3cnn(Cc4ccccc4Cl)c3)c(C(F)(F)F)oc2c1OC` [MSSM-RJD-MM-012, 3-(1-(2-chlorobenzyl)-1H-pyrazol-4-yl)-7,8-dimethoxy-2-(trifluoromethyl)-4H-chromen-4-one], the pEC50 in assay [3] is less than 4.00; in assay [4] it was less than 5.00; in assay [5], less than 4.70.

Regarding `O=c1c(Oc2ccccc2)c(C(F)(F)F)oc2c(O)c(O)c(Br)cc12` [[drawing 256]], the pIC50 in assay [1] (Table 9, read-out: IC50 (FRET CUL1 assay)) was 5.48.

On to `O=c1c(-c2cnn(Cc3cccc(F)c3)c2)c(C(F)(F)F)oc2c(O)c(O)ccc12` [MSSM-RJD-MM-024, 3-(1-(3-fluorobenzyl)-1H-pyrazol-4-yl)-7,8-dihydroxy-2-(trifluoromethyl)-4H-chromen-4-one], for which the pEC50 in assay [3] was 5.10; in assay [4], less than 5.00; in assay [5] it was 4.70 to 5.00.

For the molecule `COc1ccc2c(=O)c(-c3cnn(Cc4ccc(C(F)(F)F)cc4)c3)c(C(F)(F)F)oc2c1OC` [MSSM-RJD-MM-011, 7,8-dimethoxy-2-(trifluoromethyl)-3-(1-(4-(trifluoromethyl)benzyl)-1H-pyrazol-4-yl)-4H-chromen-4-one], the figures for the pEC50 in assay [3], in assay [4] and in assay [5] were less than 4.00, less than 5.00 and less than 4.70, respectively.

`O=c1c(-c2cnn(Cc3ccccc3Cl)c2)c(C(F)(F)F)oc2c(O)c(O)ccc12` [MSSM-RJD-MM-015, 3-(1-(2-chlorobenzyl)-1H-pyrazol-4-yl)-7,8-dihydroxy-2-(trifluoromethyl)-4H-chromen-4-one]: the pEC50 in assay [3] was 5.09; in assay [4], less than 5.00; in assay [5], less than 4.70.

In the case of `COc1ccc2c(=O)c(-c3cnn(Cc4cccc(C(F)(F)F)c4Cl)c3)c(C(F)(F)F)oc2c1OC` [MSSM-RJD-MM-020], the results for the negative logarithm of the EC50 (pEC50) in assay [3], in assay [4] and in assay [5] were 4.28, less than 5.00 and less than 4.70, respectively.

On to `CCn1cc(-c2c(C(F)(F)F)oc3c(O)c(O)ccc3c2=O)cn1` [MSSM-RJD-MM-009, 3-(1-ethyl-1H-pyrazol-4-yl)-7,8-dihydroxy-2-(trifluoromethyl)-4H-chromen-4-one], for which the pEC50 in assay [3] was 5.22; in assay [4], less than 5.00; in assay [5] it was less than 4.70.

Take `O=c1c(-c2cnn(-c3cccc(Cl)c3)c2)c(C(F)(F)F)oc2c(O)c(O)ccc12` [KH-3-151]: the pEC50 is 4.89 in assay [3], roughly 4.85 in assay [4] and 5.30 in assay [5].

On to `COc1ccc2c(=O)c(-c3cnn(Cc4ccccc4F)c3)c(C(F)(F)F)oc2c1OC` [MSSM-RJD-MM-016, 3-(1-(2-fluorobenzyl)-1H-pyrazol-4-yl)-7,8-dimethoxy-2-(trifluoromethyl)-4H-chromen-4-one], for which the figures for the pEC50 in assay [3], in assay [4] and in assay [5] were less than 4.00, less than 5.00 and less than 4.70, respectively.

With `COc1ccc2c(=O)c(-c3cnn(Cc4ccc(Cl)cc4)c3)c(C(F)(F)F)oc2c1OC` [MSSM-RJD-MM-001, 3-(1-(4-chlorobenzyl)-1H-pyrazol-4-yl)-7,8-dimethoxy-2-(trifluoromethyl)-4H-chromen-4-one], the pEC50 is less than 4.00 in assay [3], less than 5.00 in assay [4] and less than 4.70 in assay [5].

In the case of `COc1ccc2c(=O)c(-c3cnn(C(C)C)c3)c(C(F)(F)F)oc2c1OC` [MSSM-RJD-MM-003, 3-(1-isopropyl-1H-pyrazol-4-yl)-7,8-dimethoxy-2-(trifluoromethyl)-4H-chromen-4-one], the pEC50 in assay [3] is less than 4.00; in assay [4], less than 5.00; in assay [5], less than 4.70.

Turning to `CCn1cc(-c2c(C(F)(F)F)oc3c(OC)c(OC)ccc3c2=O)cn1` [MSSM-RJD-MM-005], the results for the pEC50 in assay [3], in assay [4] and in assay [5] were less than 4.00, less than 5.00 and less than 4.70, respectively.

`CCCCn1cc(-c2c(C(F)(F)F)oc3c(OC)c(OC)ccc3c2=O)cn1` [MSSM-RJD-MM-002, 3-(1-butyl-1H-pyrazol-4-yl)-7,8-dimethoxy-2-(trifluoromethyl)-4H-chromen-4-one]: the values for the pEC50 in assay [3], in assay [4] and in assay [5] were 4.02, less than 5.00 and less than 4.70, respectively.
